According to ChEMBL document CHEMBL5728748 (2021):

Test: TarO Biochemical Enzymatic Assay: The TarO biochemical enzymatic assay is a liquid chromatography-mass spectroscopy (LC-MS) based end point assay that measures C55-P-P-GlcNAc (LIPID III) production. The TarO biochemical enzymatic assay was performed in a 384-well microtiter plate (Labcyte) with a reaction volume of 20 μl. The reaction mix contained 0.1 μgs/μl of TarO membrane preparation derived from MRSA COL (lysostaphin/lysozyme treated, centrifuged at 40K rpm, and re-suspended in 50 mM Tris pH 7.5, 10 mM MgCl2), 1500 μM UDP-GlcNAc, x 75 μM C55-P substrates in 83 mM Tris pH 8.0, 6.7 mM MgCl2, 6 mM CHAPS, and 8.3% DMSO buffer. The enzyme reactions were quenched by extraction in 40 μl of 1-pentanol containing 0.04 μM […] C55-PP-GlcNAc, which was used as an internal standard. A 10 μl volume of the quenched reaction mixture (pH≈3) from each well was injected onto a reversed-phase column (C4, 5 m, 2.1×50 mm, Thermo Scientific Biobacis-4) and eluted using a NH4Ac/H2O/MeOH gradient (solvent A: 10 mM NH4Ac in water, pH 5.6; solvent B: NH4Ac (1 M)-Isopropanol (1:90, v/v, pH 5.6). The HPLC conditions were as follows: 15% solvent B for 15 seconds followed by a gradient to 90% solvent B in 90 seconds; then solvent B was kept at 95% for 10 seconds followed by a gradient to 8% solvent B in 0.1 minute. The column was then equilibrated at 15% B for 1 minute before the next injection. The flow rate was kept constant at 600 μl/minute. Mass spectrometric detection was carried out in the negative-ion mode using selected reaction monitoring (SRM). Typical mass spectrometric conditions were as follows: heated capillary temperature, 210° C.; spray voltage, 2500 V; desolvation gas (N2), 40 l/h; auxiliary gas (N2), 35 l/h. Selected ion current (SIC) chromatograms of C55-PP-GlcNAc and internal standard 15C C55-PP-GlcNAc were plotted and integrated using LCQuan incorporated in Xcalibur software (ThermoFinnigan). The linearity of C55-PP-GlcNAc concentration versus mass spectrometric signal (AC55-PP-GlcNAc/A15C-C55-PP-GlcNAc) was determined with purified C55-PP-GlcNAc. The IC50 values were calculated using the nonlinear regression analysis (sigmoidal dose response fit allowing for a variable slope) of percent inhibition data with minimum and maximum values set to 0 and 100 percent.
Work on `C[C@H]1[C@@H](c2cc(C(F)(F)F)cc(C(F)(F)F)c2)OC(=O)N1C(=O)NCc1cncc2ccccc12` yielded an IC50 of 30 nM. For `C[C@H]1[C@@H](c2cc(F)cc(C(F)(F)F)c2)OC(=O)N1C(=O)NCc1cncc2ccccc12`, the IC50 was 10 nM. Compound `O=C(NCc1cncc2ccccc12)N1C(=O)O[C@H](c2cc(F)cc(C(F)(F)F)c2)[C@@H]1CO` has an IC50 of 210 nM. Compound `C[C@H]1[C@@H](c2cccc(C(F)(F)F)c2)OC(=O)N1C(=O)NCc1cncc2ccccc12` has an IC50 of 160 nM. Compound `C[C@H]1[C@@H](c2cccc(C(F)(F)F)c2)OC(=O)N1C(=O)NCc1cncc2cccnc12` has an IC50 of 130 nM. For `C[C@H]1[C@@H](c2cc(C(F)(F)F)cc(C(F)(F)F)c2)OC(=O)N1C(=O)NCc1cncc2cccnc12`, the IC50 was 10 nM. `O=C(NCc1cncc2cccnc12)N1C(=O)O[C@H](c2cc(C(F)(F)F)cc(C(F)(F)F)c2)[C@@H]1CO` gave an IC50 of 140 nM. For `C[C@H]1[C@@H](c2cc(F)cc(C(F)(F)F)c2)OC(=O)N1C(=O)NCc1cnc2sccn12`, the IC50 was 77000 nM. With `O=C(NCc1cccc2cncnc12)N1C(=O)O[C@H](c2cc(C(F)(F)F)cc(C(F)(F)F)c2)[C@@H]1CO` the IC50 was 80 nM. With `C[C@H]1[C@@H](c2cc(F)cc(C(F)(F)F)c2)OC(=O)N1C(=O)NCc1cccc(N(C)C)c1` the IC50 was 40 nM. `C[C@H]1[C@@H](c2cc(F)cc(C(F)(F)F)c2)OC(=O)N1C(=O)NCc1cccc2cc[nH]c12` gave an IC50 of 60 nM. Compound `COc1cncc(CNC(=O)N2C(=O)O[C@H](c3cc(C(F)(F)F)cc(C(F)(F)F)c3)[C@@H]2CO)c1OC` has an IC50 of 30 nM. Work on `C[C@H]1[C@@H](c2cc(F)cc(Br)c2)OC(=O)N1C(=O)NCc1cncc2ccccc12` yielded an IC50 of 240 nM. Compound `C[C@H]1[C@@H](c2cc(F)cc(C(F)(F)F)c2)OC(=O)N1C(=O)NCc1ccccc1OC(F)F` has an IC50 of 20 nM. For `C[C@H]1[C@@H](c2cc(F)cc(C(F)(F)F)c2)OC(=O)N1C(=O)NCc1ccccc1C(F)(F)F`, the IC50 was 30 nM. `COc1cc([C@H]2OC(=O)N(C(=O)NCc3cccc4nccnc34)[C@H]2CO)cc(C(F)(F)F)c1` gave an IC50 of 450 nM. With `COc1ccncc1CNC(=O)N1C(=O)O[C@H](c2cc(C(F)(F)F)cc(C(F)(F)F)c2)[C@@H]1CO` the IC50 was 200 nM. Work on `C[C@H]1[C@@H](c2cc(C(F)(F)F)cc(C(F)(F)F)c2)OC(=O)N1C(=O)NCC1CCCc2ccccc21` (some centres undefined) yielded an IC50 of 160 nM. With `C[C@H]1[C@@H](c2cc(C(F)(F)F)cc(C(F)(F)F)c2)OC(=O)N1C(=O)NCc1cccc2ccnn12` the IC50 was 10 nM. `C[C@H]1[C@@H](c2cc(C(F)(F)F)cc(C(F)(F)F)c2)OC(=O)N1C(=O)NCc1cccc2c1OCCO2` gave an IC50 of 10 nM. `C[C@H]1[C@@H](c2cc(C(F)(F)F)cc(C(F)(F)F)c2)OC(=O)N1C(=O)NCc1ncccc1Br` showed an IC50 of 260 nM. For `COc1cc([C@H]2OC(=O)N(C(=O)NCc3cncc4cccnc34)[C@H]2CO)cc(C(F)(F)F)c1`, the IC50 was 1240 nM. Work on `C[C@H]1[C@@H](c2cc(C(F)(F)F)cc(C(F)(F)F)c2)OC(=O)N1C(=O)NCc1cnc2c(c1)CCC2` yielded an IC50 of 1870 nM. With `C[C@H]1[C@@H](c2cc(F)cc(C(F)(F)F)c2)OC(=O)N1C(=O)N(O)Cc1cccc2ccccc12` the IC50 was 7760 nM. For `C[C@H]1[C@@H](c2cc(C(F)(F)F)cc(C(F)(F)F)c2)OC(=O)N1C(=O)NCc1nccc2ccoc12`, the IC50 was 150 nM. `Cc1ccccc1CNC(=O)N1C(=O)O[C@H](c2cc(F)cc(C(F)(F)F)c2)[C@@H]1C` showed an IC50 of 140 nM. `C[C@H]1[C@@H](c2cc(F)cc(C(F)(F)F)c2)OC(=O)N1C(=O)NCc1cccc2cncnc12` showed an IC50 of 340 nM. With `C[C@H]1[C@@H](c2cc(F)cc(C(F)(F)F)c2)OC(=O)N1C(=O)NCc1ccccc1-n1cccc1` the IC50 was 450 nM. `C[C@H]1[C@@H](c2cc(F)cc(C(F)(F)F)c2)OC(=O)N1C(=O)NCc1cccc2c1C(=O)NC2` gave an IC50 of 1690 nM. With `CCOc1cc([C@H]2OC(=O)N(C(=O)NCc3cccc4cncnc34)[C@H]2C)nc(C(F)(F)F)c1` the IC50 was 10 nM. `C[C@H]1[C@@H](c2cc(C(F)(F)F)cc(C(F)(F)F)c2)OC(=O)N1C(=O)NCc1cccnc1N1CCOCC1` showed an IC50 of 3610 nM. `COc1ccccc1CNC(=O)N1C(=O)O[C@H](c2cc(F)cc(C(F)(F)F)c2)[C@@H]1C` showed an IC50 of 30 nM. `C[C@H]1[C@@H](c2cc(F)cc(C(F)(F)F)c2)OC(=O)N1C(=O)NCc1cccc2c1OCCO2` showed an IC50 of 50 nM. Work on `Cc1cccnc1CCNC(=O)N1C(=O)O[C@H](c2cc(C(F)(F)F)cc(C(F)(F)F)c2)[C@@H]1C` yielded an IC50 of 1780 nM. With `C[C@H]1[C@@H](c2cc(F)cc(C3CC3)c2)OC(=O)N1C(=O)NCc1cncc2ccccc12` the IC50 was 240 nM. `Cc1nc(C(C)C)sc1CNC(=O)N1C(=O)O[C@H](c2cc(F)cc(C(F)(F)F)c2)[C@@H]1C` gave an IC50 of 160 nM. Compound `COc1cccnc1CNC(=O)N1C(=O)O[C@H](c2cc(C(F)(F)F)cc(C(F)(F)F)c2)[C@@H]1C` has an IC50 of 910 nM. `C[C@H]1[C@@H](c2cc(F)cc(C(F)(F)F)c2)OC(=O)N1C(=O)NCc1cccc2nccnc12` gave an IC50 of 190 nM. With `C[C@H]1[C@@H](c2cc(F)cc(C(F)(F)F)c2)OC(=O)N1C(=O)NCc1ccnc2ccccc12` the IC50 was 200 nM. Compound `C[C@H]1[C@@H](c2cc(F)cc(C(F)(F)F)c2)OC(=O)N1C(=O)NCc1nccc2sccc12` has an IC50 of 120 nM. For `C[C@H]1[C@@H](c2cc(F)cc(C(F)(F)F)c2)OC(=O)N1C(=O)NCc1ccccc1CN(C)C`, the IC50 was 690 nM. Work on `Cc1cccnc1CNC(=O)N1C(=O)O[C@H](c2cc(C(F)(F)F)cc(C(F)(F)F)c2)[C@@H]1C` yielded an IC50 of 440 nM. With `C[C@H]1[C@@H](c2cc(C(F)(F)F)cc(C(F)(F)F)c2)OC(=O)N1C(=O)NCc1cccc2nccnc12` the IC50 was 50 nM. Compound `Cc1nc(C)c(CNC(=O)N2C(=O)O[C@H](c3cc(F)cc(C(F)(F)F)c3)[C@@H]2C)s1` has an IC50 of 2650 nM. Compound `C[C@H]1[C@@H](c2cc(F)cc(C(F)(F)F)c2)OC(=O)N1C(=O)NCc1ccccc1Cl` has an IC50 of 170 nM. Work on `CCOc1ccccc1CNC(=O)N1C(=O)O[C@H](c2cc(F)cc(C(F)(F)F)c2)[C@@H]1C` yielded an IC50 of 100 nM. Work on `C[C@H]1[C@@H](c2cccc(C(F)F)c2)OC(=O)N1C(=O)NCc1cncc2ccccc12` yielded an IC50 of 490 nM. For `COc1cc([C@H]2OC(=O)N(C(=O)NCc3cccc4cncnc34)[C@H]2CO)cc(C(F)(F)F)c1`, the IC50 was 870 nM. `C[C@H]1[C@@H](c2cc(F)cc(C(F)(F)F)c2)OC(=O)N1C(=O)NCc1cccc2ccccc12` showed an IC50 of 20 nM. For `COc1ccccc1CNC(=O)N1C(=O)O[C@H](c2cccc(C(F)(F)F)c2)[C@@H]1C`, the IC50 was 220 nM. Work on `Cc1cnc(F)c(CNC(=O)N2C(=O)O[C@H](c3cc(C(F)(F)F)cc(C(F)(F)F)c3)[C@@H]2C)c1` yielded an IC50 of 610 nM. `C=CCOc1cc([C@H]2OC(=O)N(C(=O)NCc3cncc4ccccc34)[C@H]2C)nc(C(F)(F)F)c1` gave an IC50 of 60 nM. Compound `C[C@H]1[C@@H](c2cc(F)cc(C(F)(F)F)c2)OC(=O)N1C(=O)NCc1cccc2cn[nH]c12` has an IC50 of 1420 nM. With `C[C@H]1[C@@H](c2cccc(C(C)(F)F)c2)OC(=O)N1C(=O)NCc1cncc2ccccc12` the IC50 was 250 nM. `C[C@H]1[C@@H](c2cc(F)cc(C(F)(F)F)c2)OC(=O)N1C(=O)NCc1ccnc2cccnc12` showed an IC50 of 540 nM. Work on `COc1cc([C@H]2OC(=O)N(C(=O)NCc3cncc4ccccc34)[C@H]2CO)cc(C(F)(F)F)c1` yielded an IC50 of 200 nM. In the case of `C[C@H]1[C@@H](c2cc(F)cc(C(F)(F)F)c2)OC(=O)N1C(=O)NCc1ccccc1[N+](=O)[O-]`, the IC50 is reported as 10 nM. `C[C@H]1[C@@H](c2cc(F)cc(C(F)(F)F)c2)OC(=O)N1C(=O)NCc1cccc2ncccc12` gave an IC50 of 850 nM. In the case of `C[C@H]1[C@@H](c2cc(F)cc(C(F)(F)F)c2)OC(=O)N1C(=O)NCc1ccccc1S(C)(=O)=O`, the IC50 is reported as 2970 nM.
